According to ChEMBL document CHEMBL4011644, “3-Hydroxy-N'-arylidenepropanehydrazonamides with Halo-Substituted Phenanthrene Scaffolds Cure P. berghei Infected Mice When Administered Perorally” (J Med Chem, 2017):
Activity calls are given as the source filed them. No cut-off for these calls is given here.

Assays:
[1] = test system: Plasmodium falciparum; assay: Antiplasmodial activity against chloroquine-sensitive asexual blood stages of Plasmodium falciparum 3D7 after 72 hrs by HRP2-based ELISA; assay type: functional; settings: 3D7, 72 h
[2] = test system: Plasmodium falciparum; assay: Antiplasmodial activity against multidrug-resistant asexual blood stages of Plasmodium falciparum Dd2 after 72 hrs by HRP2-based ELISA; assay type: functional; settings: Dd2, 72 h
[3] = test system: HepG2; assay: Cytotoxicity against human HepG2 cells by CellTiterGlo assay; assay type: cell-based
[4] = Selectivity index, ratio of IC50 for human HepG2 cells to IC50 for chloroquine-sensitive asexual blood stages of Plasmodium falciparum 3D7; assay type: toxicity; settings: read-out: Ratio IC50
[5] = test system: Plasmodium berghei; assay: Antiplasmodial activity against Plasmodium berghei infected in NMRI mouse assessed as reduction in parasitemia at 50 mg/kg, ip administered at 4, 24, 48, 72 hrs post infection measured on day 4 post infection by Peter's test relative to control; assay type: functional; parameters: scale not given: the % may be the effect or the level left
[6] = test system: Plasmodium berghei; assay: Antiplasmodial activity against Plasmodium berghei infected in NMRI mouse assessed as mean survival time at 50 mg/kg, ip administered at 4, 24, 48, 72 hrs post infection by Peter's test (reference value: 6 to 7 day); assay type: functional
[7] = test system: Plasmodium berghei; assay: Antiplasmodial activity against Plasmodium berghei infected in NMRI mouse assessed as parasite-free mouse at 50 mg/kg, ip administered at 4, 24, 48, 72 hrs post infection measured on day 30 by Peter's test; assay type: functional, organism-based
[8] = test system: Plasmodium berghei; assay: Antiplasmodial activity against Plasmodium berghei infected in NMRI mouse assessed as reduction in parasitemia at 50 mg/kg, po administered at 4, 24, 48, 72 hrs post infection measured on day 4 post infection by Peter's test relative to control; assay type: functional; parameters: scale not given: the % may be the effect or the level left
[9] = test system: Plasmodium berghei; assay: Antiplasmodial activity against Plasmodium berghei infected in NMRI mouse assessed as mean survival time at 50 mg/kg, po administered at 4, 24, 48, 72 hrs post infection by Peter's test (reference value: 6 to 7 day); assay type: functional
[10] = test system: Plasmodium berghei; assay: Antiplasmodial activity against Plasmodium berghei infected in NMRI mouse assessed as parasite-free mouse at 50 mg/kg, po administered at 4, 24, 48, 72 hrs post infection measured on day 30 by Peter's test; assay type: functional, organism-based
[11] = test system: Mus musculus; assay: Toxicity in NMRI mouse infected with Plasmodium berghei assessed as reduction in physical activity at 50 mg/kg, ip administered at 4, 24, 48, 72 hrs post infection; assay type: organism-based; settings: in vivo
[12] = test system: Mus musculus; assay: Toxicity in NMRI mouse infected with Plasmodium berghei assessed as diarrhea at 50 mg/kg, ip administered at 4, 24, 48, 72 hrs post infection; assay type: organism-based; settings: in vivo
[13] = test system: Plasmodium berghei; assay: Antiplasmodial activity against Plasmodium berghei infected in NMRI mouse assessed as reduction in parasitemia at 30 mg/kg, po administered at 4, 24, 48, 72 hrs post infection measured on day 4 by Peter's test relative to control; assay type: functional; parameters: scale not given: the % may be the effect or the level left
[14] = test system: Plasmodium berghei; assay: Antiplasmodial activity against Plasmodium berghei infected in NMRI mouse assessed as mean survival time at 30 mg/kg, po administered at 4, 24, 48, 72 hrs post infection by Peter's test (reference value: 6 to 7 day); assay type: functional
[15] = test system: Plasmodium berghei; assay: […] activity against GFP-fused Plasmodium berghei liver stage parasites infected in human HepG2-A16-CD81-EGFP cells after 48 hrs by luciferase reporter gene assay; assay type: functional
[16] = test system: Plasmodium berghei; assay: Antiplasmodial activity against Plasmodium berghei infected in NMRI mouse assessed as parasite-free mouse at 30 mg/kg, po administered at 4, 24, 48, 72 hrs post infection measured on day 30 by Peter's test; assay type: functional, organism-based
[17] = test system: Mus musculus; assay: Toxicity in NMRI mouse infected with Plasmodium berghei assessed as overt toxicity at 50 mg/kg, ip administered at 4, 24, 48, 72 hrs post infection; assay type: organism-based; settings: in vivo
[18] = test system: Plasmodium berghei; assay: Antiplasmodial activity against Plasmodium berghei infected in NMRI mouse assessed as reduction in parasitemia at 10 mg/kg, po administered at 4, 24, 48, 72 hrs post infection measured on day 4 by Peter's test relative to control; assay type: functional; parameters: scale not given: the % may be the effect or the level left
[19] = test system: Plasmodium berghei; assay: Antiplasmodial activity against Plasmodium berghei infected in NMRI mouse assessed as mean survival time at 10 mg/kg, po administered at 4, 24, 48, 72 hrs post infection measured on day 4 by Peter's test (reference value: 6 to 7 day); assay type: functional
[20] = test system: Plasmodium berghei; assay: Antiplasmodial activity against Plasmodium berghei infected in NMRI mouse assessed as parasite free mouse at 10 mg/kg, po administered at 4, 24, 48, 72 hrs post infection measured on day 4 by Peter's test; assay type: functional, organism-based
[21] = test system: Plasmodium berghei; assay: Antiplasmodial activity against Plasmodium berghei infected in NMRI mouse assessed as reduction in parasitemia at 3 mg/kg, po administered at 4, 24, 48, 72 hrs post infection measured on day 4 by Peter's test relative to control; assay type: functional; parameters: scale not given: the % may be the effect or the level left
[22] = test system: Plasmodium berghei; assay: Antiplasmodial activity against Plasmodium berghei infected in NMRI mouse assessed as parasite free mouse at 3 mg/kg, po administered at 4, 24, 48, 72 hrs post infection measured on day 4 by Peter's test; assay type: functional, organism-based
[23] = test system: Plasmodium falciparum; assay: Effect on female gamete formation in transgenic GFP-fused Plasmodium falciparum NF54 mature stage-5 gametocytes at 1 uM after 72 hrs under reduced oxygen tension by Mitotracker Red CMH2XRos staining based confocal microscopic method; assay type: functional
[24] = test system: Plasmodium falciparum; assay: Effect on male gamete formation in transgenic GFP-fused Plasmodium falciparum NF54 mature stage-5 gametocytes at 1 uM after 72 hrs under reduced oxygen tension by Mitotracker Red CMH2XRos staining based confocal microscopic method; assay type: functional
[25] = test system: Plasmodium falciparum; assay: Gametocytocidal activity against transgenic GFP-fused Plasmodium falciparum NF54 […] stage gametocytes after 72 hrs by Mitotracker Red CMH2XRos staining based confocal microscopic method; assay type: functional; settings: NF54, 72 h
[26] = test system: Plasmodium falciparum; assay: Gametocytocidal activity against transgenic GFP-fused Plasmodium falciparum NF54 early stage gametocytes after 72 hrs by Mitotracker Red CMH2XRos staining based confocal microscopic method; assay type: functional; settings: NF54, 72 h
[27] = molecular target: Voltage-gated inwardly rectifying potassium channel KCNH2 (Homo sapiens, UniProt Q12809); assay: Inhibition of human ERG by fluorescence polarization assay
Chain of Voltage-gated inwardly rectifying potassium channel KCNH2 (Q12809 whole entry): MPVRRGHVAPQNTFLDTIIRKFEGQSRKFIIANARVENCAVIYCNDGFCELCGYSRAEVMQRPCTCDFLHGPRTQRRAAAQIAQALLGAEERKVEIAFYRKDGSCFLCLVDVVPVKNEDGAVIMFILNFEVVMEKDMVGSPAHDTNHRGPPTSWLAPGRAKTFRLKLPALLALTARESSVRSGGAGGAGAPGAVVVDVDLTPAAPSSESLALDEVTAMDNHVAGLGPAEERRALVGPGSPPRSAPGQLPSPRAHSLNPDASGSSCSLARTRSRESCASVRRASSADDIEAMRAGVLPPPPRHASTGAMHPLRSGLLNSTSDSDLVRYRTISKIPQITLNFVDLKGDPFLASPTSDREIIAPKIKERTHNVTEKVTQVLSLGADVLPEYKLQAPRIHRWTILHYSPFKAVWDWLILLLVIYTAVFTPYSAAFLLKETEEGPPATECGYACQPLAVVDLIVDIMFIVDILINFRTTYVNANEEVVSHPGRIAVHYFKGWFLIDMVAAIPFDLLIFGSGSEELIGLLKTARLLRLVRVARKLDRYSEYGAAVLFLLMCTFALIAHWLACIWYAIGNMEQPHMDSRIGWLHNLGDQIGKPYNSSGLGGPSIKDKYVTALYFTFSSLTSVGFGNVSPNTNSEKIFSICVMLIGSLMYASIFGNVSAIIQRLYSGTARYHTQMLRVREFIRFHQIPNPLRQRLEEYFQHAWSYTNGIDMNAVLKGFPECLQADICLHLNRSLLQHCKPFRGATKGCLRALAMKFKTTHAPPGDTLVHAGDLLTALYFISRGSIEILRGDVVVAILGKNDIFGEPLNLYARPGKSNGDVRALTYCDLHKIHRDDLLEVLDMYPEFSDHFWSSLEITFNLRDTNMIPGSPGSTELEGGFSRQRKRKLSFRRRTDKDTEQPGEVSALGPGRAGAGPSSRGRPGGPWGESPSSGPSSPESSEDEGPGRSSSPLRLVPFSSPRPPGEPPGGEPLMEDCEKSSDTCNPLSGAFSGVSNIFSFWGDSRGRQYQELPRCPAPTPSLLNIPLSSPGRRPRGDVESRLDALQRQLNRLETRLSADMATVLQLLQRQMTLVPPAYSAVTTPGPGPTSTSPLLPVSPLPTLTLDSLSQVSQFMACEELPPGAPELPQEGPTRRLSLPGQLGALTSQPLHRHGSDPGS

SMILES | IC50 [1] | IC50 [2] | IC50 [3] | selectivity ratio [4] | Activity [5] | MST [6] | Activity [7] | Activity [8] | MST [9] | Activity [10] | Activity [11] | Activity [12] | further results
CN(C)Cc1cc(/C=N/N=C(\N)CC(O)c2cc3ccccc3c3ccccc23)ccc1O (configuration not stated) | 2.5 nM | 0.97 nM | 16.7 µM | 6680 | 99.8% | 22 days | inactive | 99.8% | 24.7 days | inactive | Non-Toxic | Non-Toxic | 
CN1CCN(Cc2cc(/C=N/N=C(\N)CC(O)c3cc4ccccc4c4ccccc34)ccc2O)CC1 (configuration not stated) | 5.2 nM | 9.2 nM | 8.4 µM | 1620 | 97.6% | 18 days | inactive | 98% | 16 days | inactive | Non-Toxic | Non-Toxic | 
O[C@@H](c1cc(C(F)(F)F)nc2c(C(F)(F)F)cccc12)[C@H]1CCCCN1 [(S,R)-MEFLOQUINE] |  |  |  |  |  |  |  |  |  |  |  |  | Activity [13]: 99.9%; MST [14]: 29 days
O=C1C(O)=C([C@H]2CC[C@H](c3ccc(Cl)cc3)CC2)C(=O)c2ccccc21 [ATOVAQUONE] |  |  |  |  |  |  |  |  |  |  |  |  | IC50 [15]: 0.00026 µM
N/C(CC(O)c1cc2ccccc2c2ccccc12)=N\N=C\c1ccc(O)c(CN2CCCCC2)c1 (configuration not stated) | 2.9 nM | 5.4 nM | 8.4 µM | 2900 | 98.7% | 16.7 days | inactive | 99% | 10.3 days | inactive | Non-Toxic | Non-Toxic | 
N/C(CC(O)c1cc2c(Cl)cc(Cl)cc2c2cc(C(F)(F)F)ccc12)=N\N=C\c1ccc(F)cc1 (configuration not stated) | 1.8 nM | 2.5 nM | 43.8 µM | 24300 | 99.9% | 25.3 days |  | 99.9% | 25.3 days |  |  |  | Activity [13]: 99.4%; MST [14]: 13.7 days; Activity [16]: inactive; Activity [17]: Non-Toxic; Activity [18]: 80%; MST [19]: 5 days; Activity [20]: inactive; Activity [21]: <40%; Activity [22]: inactive; Activity [23]: inactive; Activity [24]: inactive; IC50 [25]: 36 nM; IC50 [26]: 31 nM; IC50 [15]: 13 µM
CCN(CC)Cc1cc(/C=N/N=C(\N)CC(O)c2cc3ccccc3c3ccccc23)cc(CN(CC)CC)c1O (configuration not stated) | 1.5 nM | 3.3 nM | 14.3 µM | 9530 | 99.8% | 11 days | inactive | 96.7% | 11 days | inactive | Toxic | Toxic | 
N/C(CC(O)c1cc2ccccc2c2ccccc12)=N\N=C\C1CCCCC1 (configuration not stated) | 330 nM | 720 nM | 27.4 µM | 83 |  |  |  |  |  |  |  |  | 
N/C(CC(O)c1cc2ccccc2c2ccccc12)=N\N=C\c1ccc(O)c(CN2CCOCC2)c1 (configuration not stated) | 29 nM | 44 nM | 3.7 µM | 128 | 91.3% | 14 days | inactive | 89.7% | 9.7 days | inactive | Non-Toxic | Non-Toxic | 
CCN(CC)Cc1cccc(/C=N/N=C(\N)CC(O)c2cc3ccccc3c3ccccc23)c1 (configuration not stated) | 25 nM | 36 nM | 16.6 µM | 664 |  |  |  |  |  | inactive |  |  | 
CCCCC(CCCC)=N/N=C(\N)CC(O)c1cc2ccccc2c2ccccc12 (configuration not stated) | 8.3 nM | 12 nM | 8.6 µM | 1040 | 64.8% | 7 days | inactive | <40% |  | inactive | Non-Toxic | Non-Toxic | 
C[C@H]1[C@H](OC(=O)CCC(=O)O)O[C@@H]2O[C@@]3(C)CC[C@H]4[C@H](C)CC[C@@H]1[C@@]24OO3 [ARTESUNATE] |  |  |  |  |  |  |  |  |  |  |  |  | Activity [13]: 99%; MST [14]: 10 days; Activity [16]: inactive
N/C(CC(O)c1cc2ccccc2c2ccccc12)=N\N=C1CCCCCC1 (configuration not stated) | 180 nM | 140 nM | 25.4 µM | 139 |  |  |  |  |  | inactive |  |  | 
CCN(CC)Cc1cc(/C=N/N=C(\N)CC(O)c2cc3c(Cl)cc(Cl)cc3c3cc(C(F)(F)F)ccc23)ccc1O (configuration not stated) | 6.9 nM | 13.8 nM | 42.8 µM | 6200 |  |  |  | 99.8% | 23 days | inactive |  |  | Activity [17]: Non-Toxic; IC50 [25]: 345 nM; IC50 [26]: 453 nM; IC50 [15]: 19.1 µM
CCCCN(CCCC)CC(O)c1cc(Cl)cc2c1-c1ccc(Cl)cc1/C2=C/c1ccc(Cl)cc1 (configuration not stated) [LUMEFANTRINE] |  |  |  |  |  |  |  |  |  |  |  |  | IC50 [27]: 377 nM
CCCCC(/C=N/N=C(\N)CC(O)c1cc2ccccc2c2ccccc12)CCCC (configuration not stated) | 60 nM | 92 nM | 7.6 µM | 127 |  |  |  |  |  |  |  |  | 
CCN(CC)Cc1cc(/C=N/N=C(\N)CC(O)c2cc3ccccc3c3ccccc23)ccc1O (configuration not stated) | 0.97 nM | 3.4 nM | 14.3 µM | 14700 | 99.7% | 30 days |  | 99.9% | 28.2 days | inactive | Non-Toxic | Non-Toxic | 
CCN(CC)Cc1cc(/C=N/N=C(\N)CC(O)c2cc3c(F)cc(F)cc3c3cc(C(F)(F)F)ccc23)ccc1O (configuration not stated) | 3.9 nM | 6.1 nM | 13.4 µM | 3440 | 99.8% | 30 days |  | 99.9% | 29.7 days |  |  |  | Activity [13]: 99.9%; MST [14]: 28.3 days; Activity [16]: inactive; Activity [17]: Non-Toxic; Activity [18]: 99.4%; MST [19]: 10 days; Activity [20]: inactive; Activity [21]: <40%; Activity [22]: inactive; IC50 [27]: 390 nM; Activity [23]: inactive; Activity [24]: inactive; IC50 [25]: 110 nM; IC50 [26]: 218 nM; IC50 [15]: 5.2 µM
N/C(CC(O)c1cc2ccccc2c2ccccc12)=N\N=C\c1ccc(F)cc1 (configuration not stated) |  | 1.14 nM | > 10 µM | > 1040 |  |  |  |  |  |  |  |  | 
CCN(CC)CCCC(C)Nc1ccnc2cc(Cl)ccc12 (configuration not stated) [CHLOROQUINE] |  |  |  |  |  |  |  |  |  |  |  |  | Activity [16]: inactive
